Test results taken from paper PMC10607100, “Anticancer and Antiphytopathogenic Activity of Fluorinated Isatins and Their Water-Soluble Hydrazone Derivatives” (International Journal of Molecular Sciences, 2023).

What was measured:
M-HeLa = experiment: MTT cell viability test, M-HeLa; format: cell-based, human; settings: Homo sapiens, M-HeLa; incubation time 24 h
Description: (§1) Human cell cultures of tumor origin—HeLa (cervical tumor), HuTu 80 (human duodenal adenocarcinoma), ChangLiver (human liver HeLa-like line), and normal cell line WI38, VA 13 subline 2RA is a diploid human cell strain composed of fibroblasts derived from healthy lung tissue provided by The Gamaleya National Center for Epidemiology and Microbiology, as well as the Institute of Cytology of the Russian Academy of Sciences. They were grown in a nutrient medium DMEM (PanEco, Moscow, Russia) and MEM (PanEco, Moscow, Russia), containing fetal bovine serum (10% by volume) (ThermoFisher Scientific, Paisley, UK), Glutamax (2 mM) (Gibco, Scotland, UK), and penicillin-streptomycin (1% by volume) (PanEco, Moscow, Russia). The cultivation was carried out at 37 °C in a humidified CO2 atmosphere (5%).
(§2) Cell viability was determined by the MTT test. Cells were seeded in a 96-well plate in the amount of 1 × 10^4 cells/200 µL of complete nutrient medium and cultured at 37 °C in CO2 (5%). After 24 h of incubation, various concentrations of test compounds in the range of 0.1 to 100 μM were added to the cell cultures, and then the cells were cultured under the same conditions for 24 and 72 h. For each concentration, the experiment was carried out in triplicate.
(§3) All compounds were dissolved in DMSO and then diluted with the medium to the required concentration. […] The DMSO was also added to the control wells in a volume of 1%. After the incubation time, MTT (3-(4,5-dimethylthiazol-2-yl)-2,5-diphenyltetrazolium bromide, 5 mg/mL) was added to each well, and plates were additionally incubated for 2 h (until the characteristic color appeared).
(§4) Using a plate analyzer (Cytation3, BioTech Instruments Inc., Winooski, VT, USA), the optical density was determined at 530 nm.
(§5) The IC50 parameter was calculated using the AAT Bioquest program.
(§6) The selectivity index (SI) is calculated as the ratio between the IC50 for normal cells and the IC50 for cancer cells.

HuTu 80 = experiment: MTT cell viability test, HuTu 80; format: cell-based, human; settings: Homo sapiens, HuTu80; incubation time 24 h
Description: as §1, §2, §3, §4, §5, §6

Chang Liver = experiment: MTT cell viability test, Chang liver; format: cell-based; settings: Homo sapiens, incubation time 24 h
Description: as §1, §2, §3, §4, §5

Micrococcus luteus B-109 = experiment: Agar-well diffusion, bactericidal activity; format: cell-based; settings: 500 μg/mL
Description: (§7) Plant pathogenic bacterial strains Micrococcus luteus B-109, Pectobacterium atrosepticum 1043, Pectobacterium carotovorum subsp. carotovorum MI, Pseudomonas fluorescens EL-2.1, and Xanthomonas campestris B-610 and the fungal strain Fusarium oxysporum IBPPM 543 were from the Collection of Rhizosphere Microorganisms, IBPPM RAS (WFCC no. 975, WDCM no. 1021) (CM IBPPM, http://collection.ibppm.ru). The pathogenic fungus Phytophthora cactorum VKM F-985, provided by the All-Russian Collection of Microorganisms (VKM) and deposited at the A.E. Favorsky Irkutsk Institute of Chemistry, SB RAS, was also used as a test organism. Bacteria M. luteus, P. carotovorum subsp. carotovorum, P. atrosepticum, and P. fluorescens were grown in a meat–peptone medium (BP), and X. campestris was grown in the medium with glucose, yeast extract, and calcium carbonate (GYCa). Solid media contained Bacto agar (18 g/L); pH was adjusted to 7.2–7.4. All bacterial cultures were grown at 28 °C. The mycelial cultures of F. oxysporum and P. cactorum were grown on a glucose–peptone–yeast (GPY) nutrient medium at 27 °C. For inoculum preparation, both fungal strains were initially grown on the agar GPY in Petri dishes and then transferred into the seed medium by punching out 5 mm of the agar plate culture with a self-designed cutter.
(§8) The antibacterial and antifungal activities of the compounds were explored using the agar-well diffusion method and the technique of mycelial radial growth inhibition. The method of diffusion in agar (measuring the diameter of growth inhibition zones) was used to determine the bactericidal activity. The 6-mm wells were made in agar medium (GYCa for Xanthomonas campestris or BP for other bacteria). Bacterial suspensions were distributed over the agar surface, and the tested compound’s solution (150 μL) was added to each well. The width of growth inhibition zones around the wells was determined after incubation for 36–40 h.

[1] = tested on: Pectobacterium atrosepticum 1043; experiment: Agar-well diffusion, bactericidal activity; format: cell-based; settings: 500 μg/mL
Description: as §7, §8

[2] = tested on: Pectobacterium carotovorum subsp. carotovorum MI; experiment: Agar-well diffusion, bactericidal activity; format: cell-based; settings: 500 μg/mL
Description: as §7, §8

[3] = tested on: Pseudomonas fluorescens EL-2.1; experiment: Agar-well diffusion, bactericidal activity; format: cell-based; settings: 500 μg/mL
Description: as §7, §8

[4] = tested on: Xanthomonas campestris B-610; experiment: Agar-well diffusion, bactericidal activity; format: cell-based; settings: 500 μg/mL
Description: Bacteria M. luteus, P. carotovorum subsp. carotovorum, P. atrosepticum, and P. fluorescens were grown in a meat–peptone medium (BP), and X. campestris was grown in the medium with glucose, yeast extract, and calcium carbonate (GYCa). Solid media contained Bacto agar (18 g/L); pH was adjusted to 7.2–7.4. […] For inoculum preparation, both fungal strains were initially grown on the agar GPY in Petri dishes and then transferred into the seed medium by punching out 5 mm of the agar plate culture with a self-designed cutter.
as §8

| Compound | IC50 (M-HeLa) | melting point | IC50 (HuTu 80) | IC50 (Chang Liver) | width of the inhibition zone (mm), M. luteus (Micrococcus luteus B-109) | width of the inhibition zone (mm), P. atrosepticum [1] | width of the inhibition zone (mm), P. carotovorum subsp. carotovorum [2] | width of the inhibition zone (mm), Ps. fluorescens [3] | width of the inhibition zone (mm), X. campestris [4] |
| --- | --- | --- | --- | --- | --- | --- | --- | --- | --- |
| O=C1C(=O)N(Cc2c(F)c(F)c(F)c(F)c2F)c2ccc(F)cc21 [Compound 3f, 5-Fluoro-1-((perfluorophenyl)methyl)indoline-2,3-dione] | 100 ± 7.4 µM | 112 to 113 °C | 92 ± 6.4 µM | > 100 µM |  |  |  |  |  |
| CC(C)(C)c1cc(CN2C(=O)C(=O)c3cc(F)ccc32)cc(C(C)(C)C)c1 [Compound 4d, 1-(3,5-Di-tert-butylbenzyl)-5-fluoroindoline-2,3-dione] | 58.4 ± 4.1 µM | 136 to 137 °C | 33.3 ± 2.3 µM | 39.4 ± 2.8 µM |  |  |  |  |  |
| N=C(NCCCCCCNC(=N)NC(=N)Nc1ccc(Cl)cc1)NC(=N)Nc1ccc(Cl)cc1 [Chlorohexidin, chlorohexidin, reference compound] |  |  |  |  | 5 mm | 4 mm | 5 mm | 4 mm | 5 mm |
| O=C1C(=O)N(Cc2cccc(C(F)(F)F)c2)c2ccc(F)cc21 [Compound 3e, 5-Fluoro-1-(3-(trifluoromethyl)benzyl)indoline-2,3-dione] |  | 170 to 171 °C |  |  |  |  |  |  |  |
| O=C1C(=O)N(Cc2c(F)c(F)c(F)c(F)c2F)c2ccccc21 [Compound 8d] | > 100 µM |  | 54.1 ± 3.9 µM | > 100 µM |  |  |  |  |  |

Continued, in another order:

| IC50 (M-HeLa) | melting point | Compound | IC50 (HuTu 80) | IC50 (Chang Liver) | width of the inhibition zone (mm), M. luteus (Micrococcus luteus B-109) | width of the inhibition zone (mm), P. atrosepticum [1] | width of the inhibition zone (mm), P. carotovorum subsp. carotovorum [2] | width of the inhibition zone (mm), Ps. fluorescens [3] | width of the inhibition zone (mm), X. campestris [4] |
| --- | --- | --- | --- | --- | --- | --- | --- | --- | --- |
| 98.8 ± 6.9 µM |  | O=C1C(=O)N(Cc2c(F)cccc2F)c2ccccc21 [Compound 8c] | 50.3 ± 3.6 µM | 79 ± 5.5 µM |  |  |  |  |  |
| 50 ± 3.7 µM |  | O=C1C(=O)N(Cc2ccc(F)cc2Cl)c2ccccc21 [Compound 8a] | 64 ± 4.5 µM | > 100 µM |  |  |  |  |  |
| 40 ± 2.8 µM |  | O=C1C(=O)N(Cc2ccc(Br)cc2F)c2ccccc21 [Compound 8b] | 59.4 ± 4.2 µM | 100 ± 8.4 µM |  |  |  |  |  |
